Laboratory results from patent US20020110830A1, “VEGF responsive cell-based assay for determining VEGF bioactivity” (priority 2001, published 2002).

Molecular target: T1, FLK-1 VEGF receptor (Mus musculus, UniProt P35918)
T1 construct: expressed in transfected cells; host or cells: HeLa (HLR-ELK-1, Stratagene) stably co-transfected with the FLK-1 expression vector; clone #5
Experiment: VEGF responsive luciferase assay in VEGF-receptor stable transfected HLR-ELK-1 cell line (clone #5)
Assay type: cell-based
Conditions: FIG. 9
From the text: The assay of the present invention utilizes a stable VEGF responsive cell line which comprises HeLa cells which have been stably transfected with a reporter vector having an expressible reporter element and a DNA binding element disposed adjacent thereto. Preferably, the reporter vector includes a gene encoding a detectable gene product which is disposed downstream of a basic promoter element, preferably a TATA box, which is joined to the binding element which is preferably a GAL4 binding element. […]
In general, utilizing known signal transduction relationships and/or pathways, a sample to be assayed for VEGF bioactivity is placed in a container containing the stable cell line as described above. […] Activated FLK-1, which is a known VEGF receptor, then activates MAP kinase (Kroll and Waltenberger, J. Biol. Chem., 1997:272:32521-32527; Doanes et. al., Biochem. Biophys. Res. Comm., 1999;255:545-548. The activated MAP kinase phosphorylates the fusion trans-activation protein (GAL4 DNA binding domain [dbd] fused with ELK-1). The phosphorylated fusion protein binds to the GAL4 DNA binding site of the reported vector activating luciferase expression. Luciferase expression can be detected utilizing techniques well-known in the art. The presence or expression of luciferase indicates VEGF activity in the sample. […]

T1 sequence (P35918 20-1345): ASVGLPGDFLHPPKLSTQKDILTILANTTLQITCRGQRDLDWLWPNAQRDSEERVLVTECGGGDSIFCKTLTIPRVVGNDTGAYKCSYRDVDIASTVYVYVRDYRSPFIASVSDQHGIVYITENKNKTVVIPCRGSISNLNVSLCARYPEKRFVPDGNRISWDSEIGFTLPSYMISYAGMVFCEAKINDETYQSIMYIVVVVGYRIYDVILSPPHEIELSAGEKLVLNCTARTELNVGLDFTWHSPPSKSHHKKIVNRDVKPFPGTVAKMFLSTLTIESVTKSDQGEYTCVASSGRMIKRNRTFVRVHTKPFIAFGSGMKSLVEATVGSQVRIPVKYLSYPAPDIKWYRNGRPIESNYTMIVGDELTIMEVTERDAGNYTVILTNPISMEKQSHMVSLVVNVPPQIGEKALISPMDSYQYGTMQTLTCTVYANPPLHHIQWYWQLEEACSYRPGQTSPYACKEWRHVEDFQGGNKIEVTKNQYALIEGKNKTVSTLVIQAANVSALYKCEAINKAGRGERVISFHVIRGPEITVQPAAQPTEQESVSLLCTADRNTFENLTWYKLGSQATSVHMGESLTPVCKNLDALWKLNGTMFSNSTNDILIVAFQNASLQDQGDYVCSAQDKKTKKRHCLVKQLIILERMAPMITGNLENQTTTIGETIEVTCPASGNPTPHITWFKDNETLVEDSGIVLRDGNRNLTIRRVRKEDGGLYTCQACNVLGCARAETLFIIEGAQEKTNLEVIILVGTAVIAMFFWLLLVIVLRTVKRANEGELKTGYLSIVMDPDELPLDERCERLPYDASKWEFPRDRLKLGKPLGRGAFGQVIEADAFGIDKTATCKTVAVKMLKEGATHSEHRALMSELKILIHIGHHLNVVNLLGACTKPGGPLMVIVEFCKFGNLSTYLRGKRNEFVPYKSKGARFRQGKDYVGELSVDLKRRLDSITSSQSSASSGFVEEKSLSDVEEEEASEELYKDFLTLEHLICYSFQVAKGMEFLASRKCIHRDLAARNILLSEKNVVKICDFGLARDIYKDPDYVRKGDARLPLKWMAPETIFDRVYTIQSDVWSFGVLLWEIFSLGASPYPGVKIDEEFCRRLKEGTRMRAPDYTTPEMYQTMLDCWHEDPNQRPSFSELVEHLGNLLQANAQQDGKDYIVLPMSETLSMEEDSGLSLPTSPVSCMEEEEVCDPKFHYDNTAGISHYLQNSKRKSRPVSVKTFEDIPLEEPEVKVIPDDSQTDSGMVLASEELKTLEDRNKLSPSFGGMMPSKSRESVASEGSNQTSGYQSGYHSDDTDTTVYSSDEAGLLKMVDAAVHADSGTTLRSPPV

## COc1cc2c(Nc3ccc(Br)cc3F)ncnc2cc1OCCn1ccnn1 [ZD4190]
  effect on VEGF stimulation of luciferase expression: affected luciferase expression in a dose-response manner
